According to patent US20260000678A1, “PHARMACEUTICAL COMPOSITION FOR PREVENTING, SUPPRESSING, OR TREATING SYMPTOM ASSOCIATED WITH PSEUDO-ALLERGIC REACTION” (Takasaki University of Health and Welfare, priority 2022, published 2026):
Entries after “also recorded” stand apart in the source; their conditions may differ.

How the values were obtained:
PMCs = assay: Degranulation of PMCs (β-hexosaminidase release rate); assay type: cell-based, mouse; details: for Degranulation of PMCs by the stimulant alone: 37° C. 10 minutes, DNP-HSA on IgE-sensitized PMCs, BzATP 10 uM; for Effect on IgE receptor stimulation or degranulation by C48/80: α,β-methyl mATP 10 uM, ADP 100 uM, UDP-Glucose 100 uM
[1] = test system: PMCs derived from P2X4 receptor-deficient mice; assay: Degranulation of PMCs derived from P2X4 receptor-deficient mice; assay type: cell-based, mouse; details: DNP-HSA or C48/80 stimulation with 100 uM ATP
Experimental: The abdominal cavity of wild-type C57BL/6 mice (7- to 8-week-old, male; n=4) or P2X4 receptor-deficient mice (7- to 8-week-old, male; n=4) was washed with 4 mL of RPMI1640 medium to prepare peritoneal cells. The cells were cultured in RPMI1640 medium containing 10% FBS, penicillin (100 unit/ml), streptomycin (100 μg/ml), recombinant mouse IL-3 (10 ng/ml, manufactured by PeproTech, Inc.), and 10 ng/mL of SCF (manufactured by PeproTech, Inc.) for 14 days to be used for the experiment. 95% or more of the prepared PMCs were double positive for c-KIT and FcεRI (FACSCant II, manufactured by BD Biosciences).
Anti-DNP-IgE antibody (clone: SPE-7, manufactured by Sigma-Aldrich, Inc.) was added to a culture solution containing PMCs derived from wild-type C57BL/6 mice or P2X4 receptor-deficient mice so that the concentration reached 50 ng/ml, and the PMCs were sensitized overnight. The PMCs were washed with PBS(−) and suspended in Krebs Ringer-HEPES Buffer containing 0.1% BSA (NaCl 130 mM, KCl 4.7 mM, NaHCO3 4.0 mM, KH2P4 1.2 mM, Glucose 11.5 mM, HEPES 10 mM, and CaCl2—H2O 1.8 mM) so that the concentration reached 1×10^6 cell/mL. […] 50 mM carbonate buffer (pH 10.0, 100 uL) was added to stop the enzyme reaction of β-hexosaminidase, and absorbance was measured at 405/655 nm using an absorbance microplate reader Sunrise (manufactured by Tecan Trading AG). […]

wild-type C57BL/6 mice = assay: Passive systemic anaphylaxis caused by C48/80 (rectal temperature); assay type: in vivo, mouse; details: 10 mg/kg intraperitoneally 15 minutes before C48/80 (50 μg i.v.); vs vehicle; listed as Compound B
Experimental: Wild-type C57BL/6 mice (9-week-old, male; n=8) and P2X4 receptor-deficient mice (10-week-old, male; n=7) were intravenously administered with 100 μL of physiological saline containing 50 μg of C48/80 (manufactured by Sigma-Aldrich, Inc.). Thereafter, the rectal temperatures of the mice were measured with a digital thermometer (manufactured by Physitemp Instruments, LLC.) every 5 minutes for a period of 60 minutes.
Compound B, a P2X4 receptor antagonist, was used after being dissolved in physiological saline at a concentration of 10 mg/ml. In a passive systemic anaphylaxis test using the wild-type C57BL/6 mice of Example 1-1), 10 mg/kg of Compound B or a solvent thereof (vehicle) was intraperitoneally administered 15 minutes before administration of C48/80. […] From this, it was considered that the symptom of the pseudo-allergy can be reduced by the P2X4 receptor antagonist.

[2] = dose dependency, DNP-HSA 0, 1, 5, or 10 μg/mL
[3] = wild-type PMCs, C48/80 10 uM, Substance P 100 uM, PAMP-12 10 uM, vancomycin 1 mM

Nc1ncnc2c1ncn2[C@@H]1O[C@H](COP(=O)(O)OP(=O)(O)OP(=O)(O)O)[C@@H](O)[C@H]1O [ATP]
Effect of ATP on degranulation of PMCs by MrgprB2 stimulation with C48/80 (PMCs; 100 uM ATP, C48/80 10 uM, wild-type PMCs): significantly promoted | Effect of ATP on degranulation of PMCs by IgE receptor stimulation (DNP-HSA) (PMCs; 100 uM ATP, IgE (SPE-7)-sensitized wild-type PMCs): significantly promoted | Effect of ATP on dose dependency of degranulation by MrgprB2 stimulation with C48/80 (PMCs; C48/80 0, 1, 10, or 100 uM): enhanced the maximum response; also recorded: significantly increased the degree of degranulation | Effect of ATP on degranulation of PMCs by Substance P, PAMP-12 and vancomycin (PMCs; Substance P 100 uM, PAMP-12 10 uM, vancomycin 1 mM): promoted; also recorded: enhanced | Effect of ATP on degranulation by IgE receptor stimulation, DNP-HSA at a high concentration (PMCs; [2]): not observed | Effect of ATP on degranulation by IgE receptor stimulation, DNP-HSA at a low concentration (PMCs; [2]): promoted degranulation | Effect of promoting degranulation of ATP in P2X4 receptor-deficient PMCs [1]: not observed

Substance P
Degranulation of PMCs by the stimulant alone (PMCs; [3]): induced

O=C1CC(=O)N(c2ccc(NC(=O)c3ccccc3I)cc2)c2ccc3ccccc3c2N1 [Compound B48, 5-[4-(2-iodobenzoylamino)phenyl]-1H-naphtho[1,2-b][1,4]diazepine-2,4(3H,5H)-dione]
Suppression of the decrease in rectal temperature by C48/80 (wild-type C57BL/6 mice): significantly suppressed | Suppression of the promotion of degranulation of PMCs by ATP (PMCs; Compound at 10 uM before the degranulation reaction, C48/80 10 uM with or without 100 uM ATP, vs vehicle, listed as Compound B): significantly suppressed

Nc1ncnc2c1ncn2[C@@H]1O[C@H](COP(=O)(O)OP(=O)(O)O)[C@@H](O)[C@H]1O [ADP]
Effect on IgE receptor stimulation or degranulation by C48/80 (PMCs): did not affect

CN[C@H](CC(C)C)C(=O)N[C@H]1C(=O)N[C@@H](CC(N)=O)C(=O)N[C@H]2C(=O)N[C@H]3C(=O)N[C@H](C(=O)N[C@H](C(=O)O)c4cc(O)cc(O)c4-c4cc3ccc4O)[C@H](O)c3ccc(c(Cl)c3)Oc3cc2cc(c3O[C@@H]2O[C@H](CO)[C@@H](O)[C@H](O)[C@H]2O[C@H]2C[C@](C)(N)[C@H](O)[C@H](C)O2)Oc2ccc(cc2Cl)[C@H]1O [vancomycin]
Degranulation of PMCs by the stimulant alone (PMCs; [3]): induced

Nc1ncnc2c1ncn2[C@@H]1O[C@H](COP(=O)(O)CP(=O)(O)OP(=O)(O)O)[C@@H](O)[C@H]1O [α,β-methyl mATP]
Effect on IgE receptor stimulation or degranulation by C48/80 (PMCs): did not affect

Proadrenomedullin N-terminal 20 peptide [PAMP-12]
Degranulation of PMCs by the stimulant alone (PMCs; [3]): induced

BzATP
Degranulation of PMCs by the stimulant alone (PMCs; [3]): induced degranulation
